US20220071971A1, “MACROCYCLIC COMPOUNDS AND THEIR USE IN THE TREATMENT OF DISEASE” (NOVARTIS AG, priority 2018, published 2022)

Experiments:
[1] = target: T1, delF508-CFTR (Homo sapiens, UniProt P13569, DEL508-508); assay: Measurement of delF508-CFTR functional activity in primary human bronchial epithelial cells (HBECs) using MTECC-24 assay; type: cell-based; conditions: for EC50: primary human delF508-CFTR bronchial epithelial cells, 24 hr compound treatment, equivalent short circuit current, forskolin and potentiator, mean of at least two replicates, read-out: MTECC24 CFHBEC EC50; for MTECC24 CFHBEC Amax %: test compound (24 h) with potentiator (S)-3-amino-6-methoxy-N-(3,3,3-trifluoro-2-hydroxy-2-methylpropyl)-5-(trifluoromethyl)picolinamide, relative to 2 μM 3-(6-(1-(2,2-difluorobenzo[d][1,3]dioxol-5-yl)cyclopropane-1-carboxamido)-3-methylpyridin-2-yl)benzoic acid plus 0.5 μM N-(2,4-di-tert-butyl-5-hydroxyphenyl)-4-oxo-1,4-dihydroquinoline-3-carboxamide
T1 construct: expressed in transfected cells
Description: Measurement of delF508-CFTR Functional Activity in Primary Human Bronchial Epithelial Cells (HBECs) Using Multi-Transepithelial Clamp Circuit (MTECC-24) Assay
This assay measures the functional activity of the CFTR channel (Chloride ion transport) in patient derived primary human bronchial epithilial cells with forskolin activation and in the presence of the CFTR corrector/potentiator combination.
Primary human delF508-CFTR bronchial epithelial cells were and cultured according to previously established methods (Neuberger, T. et, al., Methods in Molecular Biology, 2011, 741, pp 39-54). Briefly, before thawing the HBEC cells, T25 flasks were coated with 2 mL of 3T3 conditioned media (MTI-GlobalStem, Cat #GSM9100) for at least 12 hours in 37° C. CO2 incubator. 1.7×10^5 cells were seeded into one T25 flask with 5 mL of HBE growth media (BEBM with supplements (Lonza, Cat #CC-3170) with 10 nM of retinoic acid (Sigma, Cat #R-2625) and 1% of PSA (Hyclone, Cat #SV30079.01). Media was changed every day till the cells were 100% confluent. Cells were seeded into T75 flasks (pre-coated with 5 mL of 3T3 conditioned media for more than 12 hrs) at 4.95×10^5 cells/T75 flask in 15 mL of HBE growth media. Flasks were fed everyday with fresh HBE growth media until the cells were confluent. 24-well transwell plates (Corning, Cat #3378) were coated with 3T3 conditioned media (70 μL on top of the filter, 350 μL to the bottom of the well) overnight in the 37° C. CO2 incubator. Cells were seeded in the pre-coated 24-well transwell plates at 1.7×10^5 cell/well with 700 μL of growth media at the bottom of the well and 200 μL of growth media at the top of the filter. After 24 hrs, cells were switched into HBE differentiation media ((DMEM/F12 (Gibco, Cat #11330-032) supplement with 2% Ultroser G (Pall, Cat #15950-017), 2% of Fetal Clone II (Hyclone, Cat #SH30066.03), 0.25% Bovine Brain Extract (Lonza, Cat #CC-4098), 1% of PSA, 2.5 μg/mL of Insulin (Sigma, Cat #19278), 20 nM of Hydrocortisone (Sigma, Cat #H0888), 500 nM of Triiodothyronine (Sigma, Cat #T6397), 2.5 μg/mL of Transferrin (Sigma, Cat #T8158), 250 nM of Ethanolamine (Sigma, Cat #E0135), 1.5 μM of Epinephrine (Sigma, Cat #E4250), 250 nM of Phosphoethanolamine (Sigma, Cat #P0503), 10 nM of retinoic acid)) with 200 μL on top of the filter (apical side) and 700 μL at the bottom of the well (basolateral side). Cells were fed every other day with the differentiation media. After 4 days, cells were exposed to air/liquid interface. Then cells were fed every other day for 4 weeks before fully differentiated.
Cells were washed with 3 mM DTT in PBS at 70 ul/well for 30 min at 37° C. 6 days before the assay. 3 days before the assay, cells were washed again with PBS at 70 ul/well for 30 min at 37° C. Then cells were treated with compound for 24 hrs before the assay.
Following 24 hr treatment with compound, cells were transferred into plates containing 750 ul of assay media on basolateral side and 250 ul on apical side (Assay medium: F-12 Coon's modified, 20 mM HEPES pH7.4 with TRIS Base, No FCS or bicarbonate). The plates wee then transferred to the heated plate compartments (basolateral buffer temperature ˜36.5° C. on the heating block) of the TECC24 system for 45 mins prior to measurements.
Modulators were added sequentially as follows while the TECC24 instrument recorded the equivalent short circuit current (Ieq):
Prior to dilution into assay medium the stocks were as follows: Benzamil stock: 10 mM in DMSO
Forskolin Stock: 50 mM in DMSO
N-(2,4-di-tert-butyl-5-hydroxyphenyl)-1,4-dihydro-4-oxoquinoline-3-carboxamide: 50 mM in DMSO (S)-3-amino-6-methoxy-N-(3,3,3-trifluoro-2-hydroxy-2-methylpropyl)-5-(trifluoromethyl)picolinamide: 50 mM stock 100% DMSO Bumetanide stock: 20 mM in EtOH
The data was normalized using the median signal from wells treated with 0.1% DMSO as a baseline. Curve fitting and EC50 calculations were performed using the following equation: […]

[2] = target: T1, delF508-CFTR; assay: Measurement of delF508-CFTR-HRP surface expression in CFBE41o- cells; type: cell-based; conditions: for Emax: CFBE41o-, read-out: DelF508-CFTR-HRP Amax %; for Emax / DelF508-CFTR-HRP Amax %: efficacy relative to reference compound 3-(6-(1-(2,2-difluorobenzo[d][1,3]dioxol-5-yl)cyclopropane-1-carboxamido)-3-methylpyridin-2-yl)benzoic acid; for EC50: HRP-tagged delF508-CFTR surface expression, CFBE41o- cells, 24 h with compound, 10-point curve, highest concentration 10 μM
Outline: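 CFBE41o- cells stably expressing delF508-CFTR with HRP in the fourth extracellular loop, induced 48 h with 500 ng/mL doxycycline, then exposed to compound (10-point, 3-fold, top 10 μM, ≤0.5% DMSO) for 24 h at 37° C. Surface HRP read by luminescence with cell-impermeant substrate; EC50 by logistic fit, triplicates, efficacy relative to reference corrector.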

T1 sequence (P13569 with tags, fused parts or gaps DEL508-508): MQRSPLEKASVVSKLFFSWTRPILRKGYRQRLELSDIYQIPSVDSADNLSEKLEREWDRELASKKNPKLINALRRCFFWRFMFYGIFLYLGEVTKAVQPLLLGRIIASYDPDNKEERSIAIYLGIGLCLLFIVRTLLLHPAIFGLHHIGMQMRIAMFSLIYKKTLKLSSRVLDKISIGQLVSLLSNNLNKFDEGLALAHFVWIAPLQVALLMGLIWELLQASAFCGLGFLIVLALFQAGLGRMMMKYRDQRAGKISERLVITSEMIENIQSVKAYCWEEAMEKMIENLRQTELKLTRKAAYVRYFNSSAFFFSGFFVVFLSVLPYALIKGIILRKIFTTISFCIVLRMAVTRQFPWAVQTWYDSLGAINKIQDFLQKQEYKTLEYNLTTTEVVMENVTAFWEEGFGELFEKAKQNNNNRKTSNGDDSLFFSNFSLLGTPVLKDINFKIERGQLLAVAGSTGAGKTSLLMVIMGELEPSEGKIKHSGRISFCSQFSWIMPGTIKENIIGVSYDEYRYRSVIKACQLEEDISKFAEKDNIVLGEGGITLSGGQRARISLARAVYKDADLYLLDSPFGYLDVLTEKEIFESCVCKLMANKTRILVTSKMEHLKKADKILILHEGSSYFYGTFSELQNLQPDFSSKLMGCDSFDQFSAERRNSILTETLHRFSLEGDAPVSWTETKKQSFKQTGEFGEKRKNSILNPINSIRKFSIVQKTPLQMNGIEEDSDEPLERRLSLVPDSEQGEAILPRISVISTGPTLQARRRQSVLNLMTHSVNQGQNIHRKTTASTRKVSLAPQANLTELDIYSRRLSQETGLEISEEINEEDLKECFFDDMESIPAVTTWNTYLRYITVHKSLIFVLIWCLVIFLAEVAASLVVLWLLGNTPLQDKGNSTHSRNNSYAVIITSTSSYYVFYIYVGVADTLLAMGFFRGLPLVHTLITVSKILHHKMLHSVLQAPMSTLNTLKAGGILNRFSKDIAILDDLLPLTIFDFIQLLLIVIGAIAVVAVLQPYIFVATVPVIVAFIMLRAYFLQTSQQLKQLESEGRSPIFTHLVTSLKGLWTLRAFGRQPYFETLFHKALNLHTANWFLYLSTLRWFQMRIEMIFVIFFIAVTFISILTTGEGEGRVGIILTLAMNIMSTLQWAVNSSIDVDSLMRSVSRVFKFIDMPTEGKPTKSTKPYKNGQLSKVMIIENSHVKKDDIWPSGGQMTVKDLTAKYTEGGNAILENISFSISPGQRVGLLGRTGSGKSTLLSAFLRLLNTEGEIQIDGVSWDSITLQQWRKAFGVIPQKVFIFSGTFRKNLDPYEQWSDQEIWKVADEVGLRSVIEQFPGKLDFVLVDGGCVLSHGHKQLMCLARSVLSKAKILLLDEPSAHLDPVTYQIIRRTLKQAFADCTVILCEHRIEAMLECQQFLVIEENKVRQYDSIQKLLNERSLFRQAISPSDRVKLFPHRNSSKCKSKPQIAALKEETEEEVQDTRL

Molecule | EC50 [1] [nM] | MTECC24 CFHBEC Amax % [1] [%] | Emax [2] [%] | EC50 [2] [nM] | DelF508-CFTR-HRP Amax % [2] [%]
CC(C)(CO)CN1CCCCCc2ccccc2-c2nc(ccc2C(F)(F)F)NS(=O)(=O)c2cccc1n2 [Compound 27, 6-(3-hydroxy-2,2-dimethylpropyl)-2^3-(trifluoromethyl)-4-thia-3,6-diaza-2,5(2,6)-dipyridina-1(1,2)-benzenacycloundecaphane 4,4-dioxide] | 3.1 | 132.0 | 829 | 177 | –
CN1CCCCCCc2ccccc2-c2nc(ccc2C(F)(F)F)NS(=O)(=O)c2cccc1n2 [Compound 35, 6-methyl-2^3-(trifluoromethyl)-4-thia-3,6-diaza-2,5(2,6)-dipyridina-1(1,2)-benzenacyclododecaphane 4,4-dioxide] | – | – | 715 | 331 | –
O=S1(=O)Nc2ccc(C(F)(F)F)c(n2)-c2cc(F)ccc2OCCCCN(CCCO)c2cccc1n2 [Compound 22, 1^5-fluoro-6-(3-hydroxypropyl)-2^3-(trifluoromethyl)-11-oxa-4-thia-3,6-diaza-2,5(2,6)-dipyridina-1(1,2)-benzenacycloundecaphane 4,4-dioxide] | – | – | 666 | 603 | –
O=C(O)CCCN1CCCCCCc2ccc(F)cc2-c2nc(ccc2C(F)(F)F)NS(=O)(=O)c2cccc1n2 [Compound 68, 4-(1^5-fluoro-4,4-dioxido-2^3-(trifluoromethyl)-4-thia-3,6-diaza-2,5(2,6)-dipyridina-1(1,2)-benzenacyclododecaphane-6-yl)butanoic acid] | – | – | – | 418 | –
O=C(O)CCOCCN1CCCCCc2ccccc2-c2nc(ccc2C(F)(F)F)NS(=O)(=O)c2cccc1n2 [Compound 64, 3-(2-(4,4-dioxido-2^3-(trifluoromethyl)-4-thia-3,6-diaza-2,5(2,6)-dipyridina-1(1,2)-benzenacycloundecaphane-6-yl)ethoxy)propanoic acid] | – | – | 862 | 913 | –
O=C(O)CN1CCCCOc2ccccc2-c2nc(ccc2C(F)(F)F)NS(=O)(=O)c2cccc1n2 [Compound 4, 2-(4,4-dioxido-2^3-(trifluoromethyl)-11-oxa-4-thia-3,6-diaza-2,5(2,6)-dipyridina-1(1,2)-benzenacycloundecaphane-6-yl)acetic acid] | – | – | 74.4 | 2870 | –
O=C(O)CCCN1CCCCCc2ccccc2-c2nc(ccc2C(F)(F)F)NS(=O)(=O)c2cccc1n2 [Compound 67, 4-(4,4-dioxido-2^3-(trifluoromethyl)-4-thia-3,6-diaza-2,5(2,6)-dipyridina-1(1,2)-benzenacycloundecaphane-6-yl)butanoic acid] | – | – | – | 608 | –

Second part, the molecule after the results:

EC50 [1] [nM] | MTECC24 CFHBEC Amax % [1] [%] | Emax [2] [%] | EC50 [2] [nM] | DelF508-CFTR-HRP Amax % [2] [%] | Molecule
1 | 213.1 | – | 391 | – | O=S1(=O)Nc2ccc(C(F)(F)F)c(n2)-c2ccccc2CCCCCN(CCO)c2cccc1n2 [Compound 117, 6-(2-hydroxyethyl)-2^3-(trifluoromethyl)-4-thia-3,6-diaza-2,5(2,6)-dipyridina-1(1,2)-benzenacycloundecaphane 4,4-dioxide]
30.9 | 56.7 | 858 | 1180 | – | O=C(O)CCN1CCCCCc2ccccc2-c2nc(ccc2Cl)NS(=O)(=O)c2cccc1n2 [Compound 89, 3-(2^3-chloro-4,4-dioxido-4-thia-3,6-diaza-2,5(2,6)-dipyridina-1(1,2)-benzenacycloundecaphane-6-yl)propanoic acid]
0.8 | 279.3 | – | 230 | – | CC(C)(CN1CCCCCCc2ccccc2-c2nc(ccc2C(F)(F)F)NS(=O)(=O)c2cccc1n2)C(=O)O [Compound 99, 3-(4,4-dioxido-2^3-(trifluoromethyl)-4-thia-3,6-diaza-2,5(2,6)-dipyridina-1(1,2)-benzenacyclododecaphane-6-yl)-2,2-dimethylpropanoic acid]
100 | 69.2 | – | 2030 | 719.0 | 3-(4,4-dioxido-2^3-(trifluoromethyl)-9-oxa-4-thia-3,6-diaza-2,5(2,6)-dipyridina-1(1,2)-benzenacyclododecaphane-6-yl)propanoic acid [Compound 98]
– | – | 644 | 2600 | – | O=S1(=O)Nc2ccc(Cl)c(n2)-c2ccccc2CCCCOc2cccc1n2 [Compound 112, 2^3-chloro-6-oxa-4-thia-3-aza-2,5(2,6)-dipyridina-1(1,2)-benzenacyclodecaphane 4,4-dioxide]
– | – | 179 | 2650 | – | O=C(O)CCN1CCCCCc2ccccc2-c2cccc(n2)NS(=O)(=O)c2cccc1n2 [Compound 93, 3-(4,4-dioxido-4-thia-3,6-diaza-2,5(2,6)-dipyridina-1(1,2)-benzenacycloundecaphane-6-yl)propanoic acid]
– | – | – | 84 | – | O=C(O)CCCCN1CCCCCCCc2ccccc2-c2nc(ccc2C(F)(F)F)NS(=O)(=O)c2cccc1n2 [Compound 101, 5-(4,4-dioxido-2^3-(trifluoromethyl)-4-thia-3,6-diaza-2,5(2,6)-dipyridina-1(1,2)-benzenacyclotridecaphane-6-yl)pentanoic acid]
– | – | – | 2430 | 163.8 | COc1ccc2nc1-c1ccccc1CCCCCN(CCCC(=O)O)c1cccc(n1)S(=O)(=O)N2 [Compound 83, 4-(2^3-methoxy-4,4-dioxido-4-thia-3,6-diaza-2,5(2,6)-dipyridina-1(1,2)-benzenacycloundecaphane-6-yl)butanoic acid]
– | – | – | 293 | – | O=C(O)CCCN1CCCCCc2ccc(F)cc2-c2nc(ccc2C(F)(F)F)NS(=O)(=O)c2cccc1n2 [Compound 86, 4-(1^5-fluoro-4,4-dioxido-2^3-(trifluoromethyl)-4-thia-3,6-diaza-2,5(2,6)-dipyridina-1(1,2)-benzenacycloundecaphane-6-yl)butanoic acid]
– | – | – | 293 | – | O=C(O)CCCCN1CCCCCCc2ccccc2-c2nc(ccc2C(F)(F)F)NS(=O)(=O)c2cccc1n2 [Compound 78, 5-(4,4-dioxido-2^3-(trifluoromethyl)-4-thia-3,6-diaza-2,5(2,6)-dipyridina-1(1,2)-benzenacyclododecaphane-6-yl)pentanoic acid]
